Reference: ChEMBL document CHEMBL3885881, “DrugMatrix”

Species on record: Rattus norvegicus
Test: DrugMatrix - Regimen: Daily Repeat
Assay type: toxicity, organism-based, Sprague-Dawley
Parameters: regimen Daily Repeat, gender Male, age 6-8 weeks
Settings: in vivo, iv, vehicle 100 % SALINE; for ABSOLUTE BASOPHIL / ABSOLUTE EOSINOPHIL / ABSOLUTE LYMPHOCYTE / ABSOLUTE MONOCYTE / ABSOLUTE SEGMENTED NEUTROPHIL / BASOPHIL / EOSINOPHIL / ERYTHROCYTE COUNT / HEMATOCRIT / HEMOGLOBIN / LEUKOCYTE COUNT / LYMPHOCYTE / MEAN CORPUSCULAR HEMOGLOBIN / MEAN CORPUSCULAR HEMOGLOBIN CONCENTRATION / MEAN CORPUSCULAR VOLUME / MONOCYTE / NEUTROPHIL / NUCLEATED RED BLOOD CELLS / PLATELET COUNT: tissue Blood; for ALANINE AMINOTRANSFERASE / ALBUMIN / ALKALINE PHOSPHATASE / ASPARTATE AMINOTRANSFERASE / BLOOD UREA NITROGEN / CARBON DIOXIDE / CHLORIDE / CHOLESTEROL / CREATINE PHOSPHOKINASE / CREATININE / GLUCOSE / LACTATE DEHYDROGENASE / LIPASE / PHOSPHORUS / POTASSIUM / SODIUM / TOTAL BILIRUBIN / TOTAL PROTEIN / URIC ACID: tissue Plasma
[1] = 100 mg/kg, 72 h, dose level Low, time 3 day
[2] = 100 mg/kg, 120 h, dose level Low, time 5 day
[3] = 755 mg/kg, 72 h, dose level High, time 3 day
[4] = 755 mg/kg, 120 h, dose level High, time 5 day

In the case of O=S(=O)([O-])CCS.[Na+] [MESNA], the “ABSOLUTE BASOPHIL” value [1] is reported as 0 CELLS/uL, the “ABSOLUTE EOSINOPHIL” value [1] is reported as 43.67 CELLS/uL and the “ABSOLUTE LYMPHOCYTE” value [1] is reported as 13323 CELLS/uL. The “ABSOLUTE MONOCYTE” value [1] was 251.67 CELLS/uL, the “ABSOLUTE SEGMENTED NEUTROPHIL” value [1] was 848.33 CELLS/uL and the BASOPHIL [1] was 0%. For the same compound, the EOSINOPHIL [1] was 0.33%, the “ERYTHROCYTE COUNT” value [1] was 6 x10E6/uL and the HEMATOCRIT [1] was 37.23%. For the same compound, the HEMOGLOBIN [1] was 13.77 G/DL, the “LEUKOCYTE COUNT” value [1] was 14.47 x10E3/uL and the LYMPHOCYTE [1] was 92%. For the same compound, the “MEAN CORPUSCULAR HEMOGLOBIN” value [1] was 22.97 pg, the “MEAN CORPUSCULAR HEMOGLOBIN CONCENTRATION” value [1] was 36.97 G/DL and the “MEAN CORPUSCULAR VOLUME” value [1] was 62.07 fL. For the same compound, the MONOCYTE [1] was 1.67%, the NEUTROPHIL [1] was 6% and the “NUCLEATED RED BLOOD CELLS” value [1] was 0.67 /100WBC. The “PLATELET COUNT” value [1] was 1218 x10E3/uL, the “ALANINE AMINOTRANSFERASE” value [1] was 53.67 u/L and the ALBUMIN [1] was 4.3 G/DL. The “ALKALINE PHOSPHATASE” value [1] was 358.33 u/L, the “ASPARTATE AMINOTRANSFERASE” value [1] was 87 u/L and the “BLOOD UREA NITROGEN” value [1] was 15 mg/dL. For the same compound, the “CARBON DIOXIDE” value [1] was 26 mmol/L, the CHLORIDE [1] was 102.33 MEQ/L and the CHOLESTEROL [1] was 79.33 mg/dL. The “CREATINE PHOSPHOKINASE” value [1] was 501.33 u/L, the CREATININE [1] was 0.29 mg/dL and the GLUCOSE [1] was 159.67 mg/dL. For the same compound, the “LACTATE DEHYDROGENASE” value [1] was 166 u/L, the LIPASE [1] was 12 u/L and the PHOSPHORUS [1] was 12.7 mg/dL. The POTASSIUM [1] was 6.86 MEQ/L, the SODIUM [1] was 147.77 MEQ/L and the “TOTAL BILIRUBIN” value [1] was 0.2 mg/dL. The “TOTAL PROTEIN” value [1] was 6.23 G/DL, the “URIC ACID” value [1] was 1.63 mg/dL and the “ABSOLUTE BASOPHIL” value [2] was 0 CELLS/uL. The “ABSOLUTE EOSINOPHIL” value [2] was 120.33 CELLS/uL, the “ABSOLUTE LYMPHOCYTE” value [2] was 14708 CELLS/uL and the “ABSOLUTE MONOCYTE” value [2] was 625.67 CELLS/uL. For the same compound, the “ABSOLUTE SEGMENTED NEUTROPHIL” value [2] was 879.33 CELLS/uL, the BASOPHIL [2] was 0% and the EOSINOPHIL [2] was 0.67%. The “ERYTHROCYTE COUNT” value [2] was 5.55 x10E6/uL, the HEMATOCRIT [2] was 36.7% and the HEMOGLOBIN [2] was 13.53 G/DL. The “LEUKOCYTE COUNT” value [2] was 16.33 x10E3/uL, the LYMPHOCYTE [2] was 90.33% and the “MEAN CORPUSCULAR HEMOGLOBIN” value [2] was 24.4 pg. The “MEAN CORPUSCULAR HEMOGLOBIN CONCENTRATION” value [2] was 36.9 G/DL, the “MEAN CORPUSCULAR VOLUME” value [2] was 66.07 fL and the MONOCYTE [2] was 3.67%. For the same compound, the NEUTROPHIL [2] was 5.33%, the “NUCLEATED RED BLOOD CELLS” value [2] was 0 /100WBC and the “PLATELET COUNT” value [2] was 1137 x10E3/uL. For the same compound, the “ALANINE AMINOTRANSFERASE” value [2] was 56.67 u/L, the ALBUMIN [2] was 4.33 G/DL and the “ALKALINE PHOSPHATASE” value [2] was 375 u/L. The “ASPARTATE AMINOTRANSFERASE” value [2] was 83.67 u/L, the “BLOOD UREA NITROGEN” value [2] was 15.33 mg/dL and the “CARBON DIOXIDE” value [2] was 22.67 mmol/L. For the same compound, the CHLORIDE [2] was 102.67 MEQ/L, the CHOLESTEROL [2] was 87.33 mg/dL and the “CREATINE PHOSPHOKINASE” value [2] was 282.67 u/L. The CREATININE [2] was 0.27 mg/dL, the GLUCOSE [2] was 153.67 mg/dL and the “LACTATE DEHYDROGENASE” value [2] was 140.67 u/L. It also gave an LIPASE [2] of 11 u/L, a PHOSPHORUS [2] of 11.4 mg/dL and a POTASSIUM [2] of 6.06 MEQ/L. For the same compound, the SODIUM [2] was 146.67 MEQ/L, the “TOTAL BILIRUBIN” value [2] was 0.3 mg/dL and the “TOTAL PROTEIN” value [2] was 6.4 G/DL. The “URIC ACID” value [2] was 1.07 mg/dL, the “ABSOLUTE BASOPHIL” value [3] was 0 CELLS/uL and the “ABSOLUTE EOSINOPHIL” value [3] was 65.67 CELLS/uL. The “ABSOLUTE LYMPHOCYTE” value [3] was 13484.33 CELLS/uL, the “ABSOLUTE MONOCYTE” value [3] was 234.33 CELLS/uL and the “ABSOLUTE SEGMENTED NEUTROPHIL” value [3] was 1215.67 CELLS/uL. The BASOPHIL [3] was 0%, the EOSINOPHIL [3] was 0.33% and the “ERYTHROCYTE COUNT” value [3] was 5.37 x10E6/uL. The HEMATOCRIT [3] was 34.63%, the HEMOGLOBIN [3] was 12.87 G/DL and the “LEUKOCYTE COUNT” value [3] was 15 x10E3/uL. The LYMPHOCYTE [3] was 90%, the “MEAN CORPUSCULAR HEMOGLOBIN” value [3] was 23.93 pg and the “MEAN CORPUSCULAR HEMOGLOBIN CONCENTRATION” value [3] was 37.17 G/DL. For the same compound, the “MEAN CORPUSCULAR VOLUME” value [3] was 64.43 fL, the MONOCYTE [3] was 1.67% and the NEUTROPHIL [3] was 8%. The “NUCLEATED RED BLOOD CELLS” value [3] was 0 /100WBC, the “PLATELET COUNT” value [3] was 960.33 x10E3/uL and the “ALANINE AMINOTRANSFERASE” value [3] was 55.33 u/L. For the same compound, the ALBUMIN [3] was 4.07 G/DL, the “ALKALINE PHOSPHATASE” value [3] was 330.67 u/L and the “ASPARTATE AMINOTRANSFERASE” value [3] was 74.33 u/L. For the same compound, the “BLOOD UREA NITROGEN” value [3] was 17.33 mg/dL, the “CARBON DIOXIDE” value [3] was 25.67 mmol/L and the CHLORIDE [3] was 102 MEQ/L. For the same compound, the CHOLESTEROL [3] was 76 mg/dL, the “CREATINE PHOSPHOKINASE” value [3] was 342.67 u/L and the CREATININE [3] was 0.21 mg/dL. The GLUCOSE [3] was 165.33 mg/dL, the “LACTATE DEHYDROGENASE” value [3] was 152.67 u/L and the LIPASE [3] was 9.67 u/L. It also gave a PHOSPHORUS [3] of 12.4 mg/dL, a POTASSIUM [3] of 6.83 MEQ/L and an SODIUM [3] of 143.67 MEQ/L. For the same compound, the “TOTAL BILIRUBIN” value [3] was 0.13 mg/dL, the “TOTAL PROTEIN” value [3] was 6.23 G/DL and the “URIC ACID” value [3] was 1.8 mg/dL. For the same compound, the “ABSOLUTE BASOPHIL” value [4] was 0 CELLS/uL, the “ABSOLUTE EOSINOPHIL” value [4] was 0 CELLS/uL and the “ABSOLUTE LYMPHOCYTE” value [4] was 18795 CELLS/uL. The “ABSOLUTE MONOCYTE” value [4] was 498.33 CELLS/uL, the “ABSOLUTE SEGMENTED NEUTROPHIL” value [4] was 1040 CELLS/uL and the BASOPHIL [4] was 0%. The EOSINOPHIL [4] was 0%, the “ERYTHROCYTE COUNT” value [4] was 5.72 x10E6/uL and the HEMATOCRIT [4] was 34.77%. For the same compound, the HEMOGLOBIN [4] was 13.27 G/DL, the “LEUKOCYTE COUNT” value [4] was 20.33 x10E3/uL and the LYMPHOCYTE [4] was 92.33%. For the same compound, the “MEAN CORPUSCULAR HEMOGLOBIN” value [4] was 23.2 pg, the “MEAN CORPUSCULAR HEMOGLOBIN CONCENTRATION” value [4] was 38.2 G/DL and the “MEAN CORPUSCULAR VOLUME” value [4] was 60.87 fL. The MONOCYTE [4] was 2.67%, the NEUTROPHIL [4] was 5% and the “NUCLEATED RED BLOOD CELLS” value [4] was 0 /100WBC. For the same compound, the “PLATELET COUNT” value [4] was 1209.33 x10E3/uL, the “ALANINE AMINOTRANSFERASE” value [4] was 54.33 u/L and the ALBUMIN [4] was 4.23 G/DL. The “ALKALINE PHOSPHATASE” value [4] was 290 u/L, the “ASPARTATE AMINOTRANSFERASE” value [4] was 83.67 u/L and the “BLOOD UREA NITROGEN” value [4] was 19.33 mg/dL. For the same compound, the “CARBON DIOXIDE” value [4] was 24.33 mmol/L, the CHLORIDE [4] was 105.67 MEQ/L and the CHOLESTEROL [4] was 75.33 mg/dL. The “CREATINE PHOSPHOKINASE” value [4] was 517 u/L, the CREATININE [4] was 0.21 mg/dL and the GLUCOSE [4] was 155 mg/dL. The “LACTATE DEHYDROGENASE” value [4] was 338.33 u/L, the LIPASE [4] was 9.67 u/L and the PHOSPHORUS [4] was 12.17 mg/dL. For the same compound, the POTASSIUM [4] was 7.45 MEQ/L, the SODIUM [4] was 147 MEQ/L and the “TOTAL BILIRUBIN” value [4] was 0.17 mg/dL. The “TOTAL PROTEIN” value [4] was 6.23 G/DL and the “URIC ACID” value [4] was 2.07 mg/dL.
